Columns and labels:
[1] = molecular target: T1, Sodium- and chloride-dependent GABA transporter 2 (Mus musculus, UniProt P31649); assay: Inhibition of mouse GAT2-mediated [3H]GABA uptake stably transfected in HEK293 cells
T1 sequence (P31649 whole entry): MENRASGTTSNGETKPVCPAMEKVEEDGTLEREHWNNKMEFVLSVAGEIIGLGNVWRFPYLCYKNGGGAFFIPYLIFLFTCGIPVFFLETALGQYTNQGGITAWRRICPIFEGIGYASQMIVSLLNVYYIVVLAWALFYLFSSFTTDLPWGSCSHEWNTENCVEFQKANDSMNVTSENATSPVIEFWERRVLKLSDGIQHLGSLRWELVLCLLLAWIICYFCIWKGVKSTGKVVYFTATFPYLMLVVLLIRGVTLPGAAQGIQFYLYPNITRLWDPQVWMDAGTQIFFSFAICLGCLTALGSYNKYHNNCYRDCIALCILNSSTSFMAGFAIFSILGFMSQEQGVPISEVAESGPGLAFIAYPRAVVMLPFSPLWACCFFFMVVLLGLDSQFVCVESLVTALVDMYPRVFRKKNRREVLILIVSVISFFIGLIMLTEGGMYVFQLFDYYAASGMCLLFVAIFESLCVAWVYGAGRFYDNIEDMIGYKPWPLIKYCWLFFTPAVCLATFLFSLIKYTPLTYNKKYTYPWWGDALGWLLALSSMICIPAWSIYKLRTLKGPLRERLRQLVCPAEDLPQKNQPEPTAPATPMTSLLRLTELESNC

[2] = molecular target: T2, Sodium- and chloride-dependent GABA transporter 3 (Mus musculus, UniProt P31650); assay: Inhibition of mouse GAT3-mediated [3H]GABA uptake stably transfected in HEK293 cells
T2 sequence (P31650 whole entry): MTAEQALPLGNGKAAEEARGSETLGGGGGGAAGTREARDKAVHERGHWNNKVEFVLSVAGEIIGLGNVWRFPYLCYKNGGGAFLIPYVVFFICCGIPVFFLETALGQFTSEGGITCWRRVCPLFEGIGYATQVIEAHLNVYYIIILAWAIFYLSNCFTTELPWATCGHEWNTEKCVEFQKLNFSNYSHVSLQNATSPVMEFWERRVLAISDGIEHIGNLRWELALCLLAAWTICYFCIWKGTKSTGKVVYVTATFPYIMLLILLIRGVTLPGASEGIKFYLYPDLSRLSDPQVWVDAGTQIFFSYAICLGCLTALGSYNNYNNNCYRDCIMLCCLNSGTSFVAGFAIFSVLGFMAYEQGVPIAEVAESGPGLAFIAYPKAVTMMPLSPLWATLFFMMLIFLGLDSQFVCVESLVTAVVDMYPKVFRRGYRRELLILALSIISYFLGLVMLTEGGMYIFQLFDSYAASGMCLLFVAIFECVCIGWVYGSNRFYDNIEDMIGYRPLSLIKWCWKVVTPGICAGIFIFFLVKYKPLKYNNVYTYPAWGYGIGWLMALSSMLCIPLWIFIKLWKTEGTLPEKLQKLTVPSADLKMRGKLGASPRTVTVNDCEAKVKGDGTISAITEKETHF

| SMILES | IC50 [1] | IC50 [2] |
| --- | --- | --- |
| O=C(NCc1ccccc1Cl)C(CCO)N1CCC(=C(c2ccccc2)c2ccccc2)CC1 (centres undefined) | 75.9 µM | 56.2 µM |
| CN(CCCC(c1ccccc1)c1ccccc1)C(CCO)C(=O)NCc1ccc(F)cc1 (centres undefined) | 41.7 µM | 38.9 µM |
| O=C(NCc1ccc(F)cc1)C(CCO)NCCCC(c1ccccc1)c1ccccc1 (centres undefined) | 26.9 µM | 22.9 µM |
| C[C@@H](O)C[C@H](C(=O)NCc1ccccc1)N1CCC(=C(c2ccccc2)c2ccccc2)CC1 | 49 µM | 21.9 µM |
| O=C(NCc1ccc(Cl)cc1)C(CCO)NCCCC(c1ccccc1)c1ccccc1 (centres undefined) | 11 µM | 14.8 µM |
| CN(CCC=C(c1ccccc1)c1ccccc1)C(CCO)C(=O)NCc1ccc(Cl)cc1 (centres undefined) | 13.2 µM | 9.55 µM |
| Cc1ccc(CNC(=O)[C@@H](C[C@H](C)O)N2CCC(=C(c3ccccc3)c3ccccc3)CC2)cc1 | 50.1 µM |  |
| O=C(NCc1ccc(Cl)cc1)C(CCO)N1CCC(=C(c2ccccc2)c2ccccc2)CC1 (centres undefined) | 19.5 µM |  |
| O=C(NCc1ccccc1Cl)C(CCO)NCCCC(c1ccccc1)c1ccccc1 (centres undefined) |  | 18.2 µM |
| Cc1ccc(CNC(=O)C(CCO)NCCCC(c2ccccc2)c2ccccc2)cc1 (centres undefined) | 17 µM |  |
| Cc1ccc(CNC(=O)C(CCO)N(C)CCCC(c2ccccc2)c2ccccc2)cc1 (centres undefined) | 28.8 µM |  |
| CN(CCCC(c1ccccc1)c1ccccc1)C(CCO)C(=O)NCc1ccccc1Cl (centres undefined) | 28.8 µM | 16.2 µM |
| Cc1ccc(CNC(=O)C(CCO)N(C)CCC=C(c2ccccc2)c2ccccc2)cc1 (centres undefined) | 14.5 µM | 11.7 µM |
| CN(CCC=C(c1ccccc1)c1ccccc1)C(CCO)C(=O)NCc1ccccc1Cl (centres undefined) | 12.6 µM |  |
| CN(CCC=C(c1ccccc1)c1ccccc1)C(CCO)C(=O)NCc1ccccc1 (centres undefined) | 26.9 µM | 13.5 µM |
| C[C@H](O)C[C@H](C(=O)NCc1ccccc1)N1CCC(=C(c2ccccc2)c2ccccc2)CC1 | 61.7 µM | 30.9 µM |
| O=C(NCc1ccccc1Cl)C(CCO)N1CCC(C(c2ccccc2)c2ccccc2)CC1 (centres undefined) | 49 µM | 36.3 µM |

| SMILES | IC50 [1] | IC50 [2] |
| --- | --- | --- |
| O=C(NCc1ccccc1)C(CCO)N1CCC(C(c2ccccc2)c2ccccc2)CC1 (centres undefined) |  | 41.7 µM |
| O=C(NCc1ccccc1)C(CCO)NCCCC(c1ccccc1)c1ccccc1 (centres undefined) | 28.8 µM | 35.5 µM |
| Cc1ccc(CNC(=O)[C@@H](C[C@@H](C)O)N2CCC(=C(c3ccccc3)c3ccccc3)CC2)cc1 | 24 µM | 57.5 µM |
| C[C@H](O)C[C@H](C(=O)NCc1ccc(Cl)cc1)N1CCC(=C(c2ccccc2)c2ccccc2)CC1 |  | 42.7 µM |
| Cc1ccc(CNC(=O)C(CCO)N2CCC(C(c3ccccc3)c3ccccc3)CC2)cc1 (centres undefined) | 38 µM | 42.7 µM |
| Cc1ccc(CNC(=O)C(CCO)N2CCC(=C(c3ccccc3)c3ccccc3)CC2)cc1 (centres undefined) | 30.9 µM |  |
| O=C(NCc1ccccc1)C(CCO)N1CCC(=C(c2ccccc2)c2ccccc2)CC1 (centres undefined) | 46.8 µM | 37.2 µM |
| CN(CCCC(c1ccccc1)c1ccccc1)C(CCO)C(=O)NCc1ccccc1 (centres undefined) | 39.8 µM | 32.4 µM |
| C[C@H](O)C[C@H](C(=O)NCc1ccc(F)cc1)N1CCC(=C(c2ccccc2)c2ccccc2)CC1 | 100 µM | 55 µM |
| C[C@@H](O)C[C@H](C(=O)NCc1ccc(F)cc1)N1CCC(=C(c2ccccc2)c2ccccc2)CC1 | 64.6 µM | 26.9 µM |
| O=C(NCc1ccc(F)cc1)C(CCO)N1CCC(=C(c2ccccc2)c2ccccc2)CC1 (centres undefined) | 16.6 µM | 28.2 µM |
| CN(CCC=C(c1ccccc1)c1ccccc1)C(CCO)C(=O)NCc1ccc(F)cc1 (centres undefined) |  | 11.2 µM |
| O=C(NCc1ccc(Cl)cc1)C(CCO)N1CCC(C(c2ccccc2)c2ccccc2)CC1 (centres undefined) | 60.3 µM | 32.4 µM |
| CN(CCCC(c1ccccc1)c1ccccc1)C(CCO)C(=O)NCc1ccc(Cl)cc1 (centres undefined) |  | 13.2 µM |
| C[C@H](O)C[C@H](C(=O)NCc1ccccc1Cl)N1CCC(=C(c2ccccc2)c2ccccc2)CC1 |  | 28.8 µM |
| O=C(NCc1ccc(F)cc1)C(CCO)N1CCC(C(c2ccccc2)c2ccccc2)CC1 (centres undefined) | 55 µM | 34.7 µM |
